Assay results as given in ChEMBL document CHEMBL1201862, “PubChem BioAssay data set” (2004).
Structures can show the parent of a compound that is named as a salt. Activity calls are given as the source filed them.

How the values were obtained:
[1] = biological target: T1, Fatty acid synthase (Homo sapiens, UniProt P49327); assay: inhibition of human FAS-TE enzyme activity – biochemical, kinetic fluorescence intensity, dose response (AID 624326); type: functional;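 further: rate of fluorescence rise from hydrolysis of a fluorogenic O-methyl fluorescein ester substrate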
T1 sequence (P49327 whole entry): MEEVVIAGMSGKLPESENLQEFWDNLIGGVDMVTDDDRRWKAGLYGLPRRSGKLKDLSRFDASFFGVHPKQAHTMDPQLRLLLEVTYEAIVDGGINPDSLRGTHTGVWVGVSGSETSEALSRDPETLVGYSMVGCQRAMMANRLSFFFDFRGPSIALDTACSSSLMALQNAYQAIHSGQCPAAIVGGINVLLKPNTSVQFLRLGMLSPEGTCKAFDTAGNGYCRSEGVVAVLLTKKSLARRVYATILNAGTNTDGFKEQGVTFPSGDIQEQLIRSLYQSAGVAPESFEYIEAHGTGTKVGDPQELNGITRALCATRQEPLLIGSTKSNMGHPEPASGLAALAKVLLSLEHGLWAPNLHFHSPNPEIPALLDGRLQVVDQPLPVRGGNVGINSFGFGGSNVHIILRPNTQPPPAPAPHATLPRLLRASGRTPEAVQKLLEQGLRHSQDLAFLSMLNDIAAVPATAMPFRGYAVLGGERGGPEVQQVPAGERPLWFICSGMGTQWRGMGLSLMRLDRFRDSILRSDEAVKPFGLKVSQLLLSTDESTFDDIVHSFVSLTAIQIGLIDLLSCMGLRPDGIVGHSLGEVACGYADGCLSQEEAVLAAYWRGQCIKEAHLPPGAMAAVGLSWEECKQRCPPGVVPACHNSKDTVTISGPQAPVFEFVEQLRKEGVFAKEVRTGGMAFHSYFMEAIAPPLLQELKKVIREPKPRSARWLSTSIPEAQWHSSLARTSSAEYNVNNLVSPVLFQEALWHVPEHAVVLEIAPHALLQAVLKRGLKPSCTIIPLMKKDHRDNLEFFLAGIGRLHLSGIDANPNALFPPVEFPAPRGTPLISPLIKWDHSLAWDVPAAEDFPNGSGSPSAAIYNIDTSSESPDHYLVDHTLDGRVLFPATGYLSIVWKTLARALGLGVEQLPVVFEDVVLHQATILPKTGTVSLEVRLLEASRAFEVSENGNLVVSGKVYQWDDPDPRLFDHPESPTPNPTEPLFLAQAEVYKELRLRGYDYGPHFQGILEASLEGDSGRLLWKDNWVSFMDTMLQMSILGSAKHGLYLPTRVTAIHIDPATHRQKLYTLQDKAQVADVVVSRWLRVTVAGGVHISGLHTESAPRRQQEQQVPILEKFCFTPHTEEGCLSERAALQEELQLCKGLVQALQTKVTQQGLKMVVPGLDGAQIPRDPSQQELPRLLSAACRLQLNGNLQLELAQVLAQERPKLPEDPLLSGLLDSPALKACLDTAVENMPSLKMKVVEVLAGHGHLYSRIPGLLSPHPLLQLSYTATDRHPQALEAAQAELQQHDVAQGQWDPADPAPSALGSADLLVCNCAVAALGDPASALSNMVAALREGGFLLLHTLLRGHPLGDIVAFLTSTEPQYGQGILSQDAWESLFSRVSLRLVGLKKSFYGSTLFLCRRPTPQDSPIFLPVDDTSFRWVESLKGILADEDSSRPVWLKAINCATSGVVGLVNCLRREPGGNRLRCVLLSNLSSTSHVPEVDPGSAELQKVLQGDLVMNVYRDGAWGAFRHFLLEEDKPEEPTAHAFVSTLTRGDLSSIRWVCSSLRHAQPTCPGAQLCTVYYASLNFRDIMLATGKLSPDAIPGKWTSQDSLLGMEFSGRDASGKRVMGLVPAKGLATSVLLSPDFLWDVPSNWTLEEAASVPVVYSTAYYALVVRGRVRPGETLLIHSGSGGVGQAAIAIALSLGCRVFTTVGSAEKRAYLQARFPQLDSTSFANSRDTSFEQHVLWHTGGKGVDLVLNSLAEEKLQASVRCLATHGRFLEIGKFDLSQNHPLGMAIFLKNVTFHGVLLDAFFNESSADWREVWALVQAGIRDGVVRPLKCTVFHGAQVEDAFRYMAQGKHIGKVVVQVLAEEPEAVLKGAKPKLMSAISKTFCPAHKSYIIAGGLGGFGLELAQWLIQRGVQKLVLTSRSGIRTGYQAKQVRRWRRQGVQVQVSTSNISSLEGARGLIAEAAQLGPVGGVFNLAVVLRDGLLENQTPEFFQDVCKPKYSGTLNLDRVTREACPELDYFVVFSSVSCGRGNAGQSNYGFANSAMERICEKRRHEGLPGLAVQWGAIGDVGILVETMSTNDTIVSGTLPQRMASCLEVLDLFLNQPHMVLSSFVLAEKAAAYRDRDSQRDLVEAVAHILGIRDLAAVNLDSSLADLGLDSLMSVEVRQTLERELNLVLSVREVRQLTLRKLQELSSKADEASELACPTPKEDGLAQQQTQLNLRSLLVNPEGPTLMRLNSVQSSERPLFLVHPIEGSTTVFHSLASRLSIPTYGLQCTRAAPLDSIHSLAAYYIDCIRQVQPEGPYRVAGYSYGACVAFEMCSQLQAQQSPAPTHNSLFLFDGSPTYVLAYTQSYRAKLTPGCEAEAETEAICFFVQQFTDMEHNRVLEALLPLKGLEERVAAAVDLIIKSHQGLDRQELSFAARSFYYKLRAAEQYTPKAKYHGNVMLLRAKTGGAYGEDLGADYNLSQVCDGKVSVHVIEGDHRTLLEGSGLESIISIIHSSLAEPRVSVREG

[2] = viability inhibitors of stage V gametocytes – luminescence, dose response (AID 1117278); type: functional, cell-based;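 further: gametocytes exposed to compound for 24 hours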
[3] = biological target: T2, Heat shock factor protein 1 (Mus musculus, UniProt P38532); assay: enhancement of HSF1-driven luciferase signal – cell-based, NIH3T3, luminescence, dose retest, confirmation (AID 435004); type: functional;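 further: stress induced by proteasome inhibitor MG132 added 30 min after compound; luciferase reporter driven by HSF1 response element in NIH3T3 cells; actives raise luminescence as potentiators of the MG132 stress response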
T2 sequence (P38532 whole entry): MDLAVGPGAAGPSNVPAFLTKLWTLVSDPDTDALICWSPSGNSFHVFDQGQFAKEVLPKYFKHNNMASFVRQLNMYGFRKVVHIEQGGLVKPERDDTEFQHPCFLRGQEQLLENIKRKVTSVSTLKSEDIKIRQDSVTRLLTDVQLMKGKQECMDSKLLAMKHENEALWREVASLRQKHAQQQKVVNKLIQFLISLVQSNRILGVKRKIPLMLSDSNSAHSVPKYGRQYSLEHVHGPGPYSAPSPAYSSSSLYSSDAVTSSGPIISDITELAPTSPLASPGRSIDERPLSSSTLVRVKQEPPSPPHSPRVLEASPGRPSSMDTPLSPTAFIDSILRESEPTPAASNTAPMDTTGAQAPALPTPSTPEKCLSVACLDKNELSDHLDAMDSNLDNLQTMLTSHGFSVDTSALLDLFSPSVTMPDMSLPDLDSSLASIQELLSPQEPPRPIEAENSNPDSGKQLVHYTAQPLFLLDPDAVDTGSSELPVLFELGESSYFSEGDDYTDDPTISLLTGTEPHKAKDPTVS

[4] = viability loss in human Jurkat cells – cell-based, luminescence, cytotoxicity control for P. falciparum gametocyte viability project, dose response (AID 1117277); type: functional;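 further: potency reflects loss of cellular ATP meaning fewer viable cells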
[5] = biological target: T1, Fatty acid synthase; assay: inhibition of human FAS-TE enzyme activity – biochemical, endpoint fluorescence intensity, uHTS hits, dose response (AID 624327); type: functional;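 further: fluorescence from hydrolysis of an O-methyl fluorescein acyl ester substrate by the enzyme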
[6] = cells; conditions: A549
[7] = viability loss in HepG2 liver cells – cell-based, ATP luminescence, cherry-pick, set 6, cytotoxicity control, dose response (AID 1053125); type: functional
[8] = biological target: T3, Corticotropin-releasing factor receptor 2/Corticotropin-releasing factor-binding protein (Homo sapiens, UniProt P24387+Q13324); assay: activators of CRF receptor 2 with binding protein – uHTS hits, confirmation (AID 602473); type: functional; conditions: read-out: EC50_Mean
T3 sequence (Q13324 whole entry): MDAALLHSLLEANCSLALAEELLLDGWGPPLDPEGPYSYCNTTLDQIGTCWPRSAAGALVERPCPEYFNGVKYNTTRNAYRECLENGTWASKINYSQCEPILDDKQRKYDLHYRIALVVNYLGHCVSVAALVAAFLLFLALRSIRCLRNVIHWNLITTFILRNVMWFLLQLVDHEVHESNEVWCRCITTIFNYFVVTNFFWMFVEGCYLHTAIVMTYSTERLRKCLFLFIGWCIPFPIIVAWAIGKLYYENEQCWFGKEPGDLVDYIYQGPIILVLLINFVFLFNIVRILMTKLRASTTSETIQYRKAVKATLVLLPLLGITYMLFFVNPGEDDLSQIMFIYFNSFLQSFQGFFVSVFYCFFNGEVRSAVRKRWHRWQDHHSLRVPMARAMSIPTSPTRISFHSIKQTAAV
T3 sequence (P24387 whole entry): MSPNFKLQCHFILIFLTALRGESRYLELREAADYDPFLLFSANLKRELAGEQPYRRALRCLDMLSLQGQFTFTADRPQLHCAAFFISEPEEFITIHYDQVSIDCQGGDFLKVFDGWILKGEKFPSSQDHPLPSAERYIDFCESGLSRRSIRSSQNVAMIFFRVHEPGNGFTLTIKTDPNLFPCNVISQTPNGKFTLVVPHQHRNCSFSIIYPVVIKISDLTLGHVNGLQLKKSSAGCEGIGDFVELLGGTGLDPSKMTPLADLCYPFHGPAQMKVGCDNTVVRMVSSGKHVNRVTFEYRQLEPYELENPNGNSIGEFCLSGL

[9] = HIV-1 Vif–A3G interaction blockers – biochemical, TR-FRET, GST-Vif 1-94, biotin-A3G peptide, dose response retest, primary screen (AID 1117319); type: functional;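 further: TR-FRET signal of purified GST-Vif binding a biotinylated A3G peptide; inhibitors lower the FRET signal by blocking Vif and A3G binding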
[10] = T. cruzi growth inhibition in host cells, dose response, cell-based, plate reader, dry powder, set 2 (AID 652275); type: functional
[11] = antimalarial activity against erythrocytic parasites – NF54 strain, plate reader, dry powder, dose response (AID 651889); type: functional, cell-based
[12] = host muscle cell viability loss – plate reader, dry powder, counter-screen for T. cruzi inhibitor project, dose response (AID 651895); type: functional, cell-based
[13] = anti-trypanosomal activity in BESM host cells – imaging, CA-I/72 strain, bovine embryo skeletal muscle, dry powder, dose response (AID 651885); type: functional, cell-based
[14] = Trypanosoma cruzi replication inhibitors in host cells – cell-based, plate reader, dry powder samples, dose response (AID 651845); type: functional
[15] = antileishmanial activity on axenic amastigotes – plate reader, dry powder, dose response (AID 651892); type: functional, cell-based
[16] = African trypanosome bloodstream form growth inhibition – STIB900 strain, plate reader, dry powder, dose response (AID 651894); type: functional, cell-based
[17] = intracellular Chagas parasite inhibition in myoblasts – Tulahuen strain, L-6 host cells, dry powder, dose response (AID 651890); type: functional, cell-based
[18] = P. falciparum Dd2 growth inhibitors, dose response, SYBR Green, cherry-picked samples (AID 1159567); type: functional, cell-based
[19] = toxicity to human hepatoma HepG2 cells – cell-based, cherry-picked samples, cytotoxicity control, dose response (AID 1159577); type: functional
[20] = IC50 of insulin release inhibition, rat insulinoma INS-1E line, 5 mM glucose, cell-based (AID 1117331); type: functional
[21] = cells; type: functional, cell-based; conditions: INS-1E

In the case of `Cc1cc2c(cc1C)C(c1cccc([N+](=O)[O-])c1)CC(=O)N2` (stereo unspecified), the IC50 [1] is reported as 7.33 µM (active), the IC50 [2] is reported as > 109 µM (inactive) and the EC50 [3] is reported as > 260 µM (inactive). The IC50 [4] was > 83.2 µM (inactive) and the IC50 [5] was 5.61 µM (active).
In the case of `CCCCCCc1cc2cc(S(=O)(=O)c3ccc(F)cc3)c(=O)oc2cc1O`, the AC50 [6] is reported as 42.1 µM (active), the AC50 [7] is reported as 50.4 µM (active) and the EC50 [8] is reported as > 53 µM (inactive).
For `CCc1ccccc1NC(=O)CC(O)(C(=O)OC)C(F)(F)F` (stereo unspecified), the IC50 [9] was > 100 µM (active).
In the case of `C[C@@H]1CN([C@@H](C)CO)C(=O)c2cccc(NC(=O)c3ccncc3)c2O[C@@H]1CN(C)Cc1ccc(Oc2ccccc2)cc1`, the AC50 [10] is reported as 0.276 µM (active), the IC50 [11] is reported as 0.873 µM (inactive) and the IC50 [12] is reported as 47.6 µM (inactive). For the same molecule, the IC50 [13] was 0.55 µM (active), the AC50 [14] was 0.506 µM (active) and the IC50 [15] was > 100 µM (inactive). The IC50 [16] was 1.02 µM (inactive) and the IC50 [17] was 0.666 µM (active).
In the case of `OC[C@H]1Nc2ccc(-c3cccc(F)c3)cc2[C@@H]2[C@H]1CCN2Cc1ccc(F)cc1`, the AC50 [18] is reported as 4.27 µM (active) and the AC50 [19] is reported as > 39 µM (inactive).
For `CN(C)CCC[C@@]1(c2ccc(F)cc2)OCc2cc(C#N)ccc21` [ESCITALOPRAM OXALATE], the IC50 [20] was 5.45 µM (inactive) and the IC50 [21] was > 33.3 µM (inactive).
